Patent US20260158026A1, “METHODS OF TREATING CANCER AND COMPOSITIONS FOR THE SAME” (MARSAL THERAPEUTICS, INC., priority 2022, published 2026)
pIC50: −log10 of the molar value. Where two headings read alike, the source gives them in different places.

Tests used:
[1] = test system: Breast Cancer (MDA-MB-231); assay: IC50 measurement, cell viability assay; format: cell-based; settings: Homo sapiens, MDA-MB-231, 96 h, after 4 days of treatment
Protocol: (§1) Negative (100% DMSO) and positive (10 mM Staurosporine in DMSO) controls were placed in columns 10 and 11, respectively. The plate was diluted with 180 μL growth media/well and 5 μL of the resulting compound solution was transferred in quadruplicate to the assay plate. For the assay plate, 3,000 cells/well were plated in a 384 well clear bottom μL plate and allowed to adhere for at least 3 hours. […] The plates were incubated for 1, 2, 3, or 4 days. ATP levels were measured after incubation. Based on the results of Example 1, Compound 1 was selected for further evaluation.

Colon Cancer (HT-29) = assay: IC50 measurement, cell viability assay; format: cell-based; settings: Homo sapiens, HT-29, 96 h, after 4 days of treatment
Protocol: as §1

Lung Cancer (H1299) = assay: IC50 measurement, cell viability assay; format: cell-based; settings: Homo sapiens, NCI-H1299, 96 h, after 4 days of treatment
Protocol: as §1

[2] = test system: Pancreatic Cancer (MIA-PACA); assay: IC50 measurement, cell viability assay; format: cell-based; settings: Homo sapiens, MIA PaCa-2, 96 h, after 4 days of treatment
Protocol: as §1

Patient 1 GBM cells = assay: IC50 measurement, cell viability assay; format: cell-based; settings: Homo sapiens
Protocol: as §1

[3] = test system: fibroblast cells from patient 1; assay: IC50 measurement, cell viability assay; format: cell-based; settings: Homo sapiens
Protocol: as §1, with “incubation.” for “incubation. Based on the results of Example 1, Compound 1 was selected for further evaluation.”

[4] = test system: GBM cells isolated from an additional five patients; assay: IC50 measurement, cell viability assay; format: cell-based; settings: Homo sapiens, FIG. 2
Protocol: as §1, with “incubation.” for “incubation. Based on the results of Example 1, Compound 1 was selected for further evaluation.”
Serial dilutions in FIG. 2 show the effect of Compound 1 on GBM cells isolated from an additional five patients.

[5] = test system: Patient-derived GBM cells; assay: Long-term exposure assay; format: cell-based, human; settings: 0.1 μM, incubated for 21 days, FIG. 3A
Protocol: Long-term Exposure Assay: Measurements for long-term assays were performed on days 4, 8, 14, and 21. 3,000 cells/well were plated in a 384 well plate (for day 4 assay), a 96 well plate (for day 8 assay), a 24 well plate (for day 14 assay), a 6 well plate (for day 21 assay), or a 10 cm plate (for day 30 assay) and allowed to adhere as above. Following this, media was exchanged to DMEM (without FBS+1× Penstrep) with either DMSO as control treatment or compound (at final concentration of 0.1 μM or 5 μM). Every four days, media was replaced with fresh DMEM (without FBS+1×Penstrep) comprising DMSO (control) or compound. At the end of days 4, 8, 14, and 21 cell viability assays were performed.
Patient-derived GBM cells were treated with Compound 1 at concentrations of 5 μM or 0.1 μM and incubated for 21 days. Fibroblasts were used as a control (FIG. 3B).

fibroblasts = assay: Long-term exposure assay; format: cell-based, human; settings: 0.1 μM, 21 days, FIG. 3B
Glioma cells = assay: Cytotoxicity and apoptosis assays (ApoTox-Glo); format: cell-based, human
[6] = test system: glioma cells from patient 1; assay: Immunostaining with Caspase 3 antibody (apoptosis marker); format: cell-based, human; settings: compared to positive control staurosporin, FIGS. 4C and 4D
[7] = test system: glioma cells from patient 1; assay: Immunostaining and quantification of Annexin V positive cells; format: cell-based, human
fibroblast control = assay: as above; format: cell-based, human
GBM cells [8] = assay: Mitochondrial membrane potential (JC1 staining); format: cell-based, human; settings: CCCP positive control, DMSO negative control; 24, 48, 72 hrs, FIGS. 5A and 5B
Protocol: FIG. 5B is a bar graph of JC1 staining for mitochondrial depolarization in GMB cells treated with DMSO (negative control), CCCP (positive control), or Compound 1 (CMPD1) at 24 hrs, 48 hrs, and 72 hrs according to Example 6.
GBM cells were treated with Compound 1, carbonyl cyanide m-chlorophenyl hydrazine (CCCP; positive control), or DMSO (negative control) and the mitochondrial membrane potential (indicative of functional status of the GBM cells) was measured and analyzed.

GBM cells [9] = assay: Mitochondria vacuolization by Transmission Electron Microscopy; format: cell-based, human; settings: 2.5 μM, 5 μM, or 10 μM; 3, 6, 12, 24, and 48 hours
Protocol: Referring to FIGS. 6A and 6B, the GBM cells were analyzed via Transmission Electron (TEM) Microscopy after 3, 6, 12, 24, and 48 hours of incubation.

[10] = test system: patient-derived glioma cells; assay: siRNA knockdown of CRISPR-Cas9 hits followed by IC50 measurement; format: cell-based, human
Protocol: FIG. 7C is a graph of cell viability after treatment with Compound 1 for certain targets identified in FIG. 7B in patient-derived glioma cells followed by measurement of IC50 post-treatment with serial dilution of Compound 1 according to Example 8.
(§2) With reference to Step I in FIGS. 7A and 7B, whole genome CRISPR-Cas9 studies (B. Schmierer, Mol Systems Biol., 13, 945 (2017)) were carried out to identify potential targets that could explain the effect produced by Compound 1 on cancer cells. […] With reference to Step II in FIG. 7A and FIGS. 8A and 8B, after the CRISPR screening analysis was complete, the expression of identified hits were confirmed in GB cells as shown in FIG. 8A. The binding of Compound 1 to the identified hits was established via a pull-down assay using biotin labeled Compound 1 (FIG. 8B).

[11] = test system: identified hits (BMPR1A, UTP23, ARHGAP33, ITSN1); assay: Pull-down assay using biotin labeled Compound 1; format: binding, human; settings: pull-down with biotin labeled Compound 1, FIG. 8B
Protocol: as §2

[12] = test system: GBM cancer cell line xenograft; assay: GBM xenograft stereotactically implanted into the brain of nude mice; format: in vivo; settings: oral administration, versus mice not treated
Excerpt: A GBM cancer cell line was xenografted into 8-week old male nude mice and the tumor was allowed to develop for four weeks. The GBM cells were stereotactically implanted into the brain and allowed to grow for four weeks. After four weeks, treatment with Compound 1 via oral administration was started (Day 1). The mice were allowed to live until the ethical endpoint of the study was reached. Body weight and activity of animals were monitored continuously.

[13] = previous clinical trials; cited from earlier work
GBM cells [14] = assay: Combination with FDA approved oncology drugs, cell viability; format: cell-based, human; settings: combination with Compound 1, FIGS. 12A-C
Excerpt: The FDA approved oncology drugs included temozolomide (TMZ), ixabepilone, cladribine, enzalutamide, omacetaxine mepesuccinate, epothilones, erubulin, and latrunculin.

For `Fc1ccc(C(OCCN2CCN(CCCc3ccccc3)CC2)c2ccc(F)cc2)cc1` [Compound 1, vanoxerine], the pIC50 [1] was 5.64, the pIC50 (Colon Cancer (HT-29)) was 5.62 and the pIC50 (Lung Cancer (H1299)) was 5.68. The pIC50 [2] was 5.62, the pIC50 (Patient 1 GBM cells; 96 h, after 4 days of treatment, cell viability assay, read-out: Mean IC50, Brain Cancer (Patient 1 GBM cells)) was 5.66 and the pIC50 (Patient 1 GBM cells; Glioma cell, 96 h, serial dilution, 4 days of incubation, FIG. 1B, read-out: IC50 for glioma cells from patient 1) was 5.31. For the same compound, the pIC50 (Patient 1 GBM cells; various cell passages, FIG. 1C, range printed from about 300 nM to about 6.4 μM, read-out: IC50 for GBM cells, lower end of range over cell passages) was ~6.52, the pIC50 (Patient 1 GBM cells; various cell passages, FIG. 1C, range printed from about 300 nM to about 6.4 μM, read-out: IC50 for GBM cells, upper end of range over cell passages) was ~5.19 and the pIC50 ([3]; 96 h, serial dilution, 4 days of incubation, FIG. 1B, read-out: IC50 for fibroblast cells from patient 1) was 4.86. For the same compound, the pIC50 ([3]; various cell passages, FIG. 1D, read-out: IC50 for the fibroblasts, range over cell passages) was 4.39 to 4.80, the pIC50 [4] was 5.33 and the “Effect on GBM cells, long-term exposure” value [5] was “eliminated the GBM cells”. The “Cytotoxicity towards fibroblasts, long-term exposure” value (fibroblasts) was “without exhibiting cytotoxicity”, the “Apoptosis (ApoTox-Glo)” value (Glioma cells) was “apoptosis was not initiated” and the “Cytotoxicity (ApoTox-Glo)” value (Glioma cells) was “immense cytotoxicity”. The “Apoptosis positive cells, Caspase 3 immunostaining” value [6] was “did not produce apoptosis positive cells”, the “Apoptosis positive cells, Annexin V” value [7] was “do not produce more apoptosis positive cells” and the “Apoptosis positive cells, Annexin V” value (fibroblast control) was “do not produce more apoptosis positive cells”. For the same compound, the Mitochondrial membrane potential (GBM cells [8]) was “depolarization of mitochondria in a manner similar to CCCP”, the “Vacuolization of mitochondria (TEM)” value (GBM cells [9]) was “induced vacuolization of mitochondria” and the “IC50 after knockdown of ARHGAP33 versus controls” value ([10]; siRNA knockdown of ARHGAP33, FIG. 7C) was “higher IC50 values”. For the same compound, the “IC50 after knockdown of BMPR1A versus controls” value ([10]; siRNA knockdown of BMPR1A, FIG. 7C) was “higher IC50 values”, the “IC50 after knockdown of ITSN1 versus controls” value ([10]; siRNA knockdown of ITSN1, FIG. 7C) was “higher IC50 values” and the “Binding to the identified hits” value [11] was “established”. The Physical activity [12] was “increased physical activity”, the Tumor size ([12]; FIG. 9) was “reduction in tumor size” and the Bodyweight ([12]; FIG. 10) was “reduced loss in bodyweight”. The Life span ([12]; FIG. 11) was “increased life span” and the “Safety when administered to humans” value [13] was “establishing its safety”.
For `Nc1nc(Cl)nc2c1ncn2[C@H]1C[C@H](O)[C@@H](CO)O1` [cladribine], the “Cell viability, Compound 1 in the additional presence of the named drug” value (from here on “Cell viability”) (GBM cells [14]) was “statistically significant decreases in cell viability”.
With `CNC(=O)c1ccc(N2C(=S)N(c3ccc(C#N)c(C(F)(F)F)c3)C(=O)C2(C)C)cc1F` [enzalutamide] the “Cell viability” value (GBM cells [14]) was “statistically significant decreases in cell viability”.
With `C/C(=C\c1csc(C)n1)[C@@H]1C[C@@H]2O[C@]2(C)CCC[C@H](C)[C@H](O)[C@@H](C)C(=O)C(C)(C)[C@@H](O)CC(=O)N1` [ixabepilone] the “Cell viability” value (GBM cells [14]) was “statistically significant decreases in cell viability”.
